Reference: patent publication US7507727B2, “Substituted quinobenzoxazine analogs and methods of using thereof” (Cylene Pharmaceuticals, Inc., priority 2003, dated 2009)
Where “and” joins values, the source holds several entries; their conditions need not be identical. Equal values may be shown once. Read-outs that look alike come from different tables or passages of the source.

What was measured:
[1] = test system: HCT-116 cells; experiment: Annexin V-Alexa 488 staining; format: cell-based; conditions: 0.5 uM, control
Experimental: The following protocol was followed for this example. […] Incubate o/n or up to 24 hrs at 37° C. in CO2 incubator. […] Keep one or two untreated plates (medium only) as control plates. […] Harvest cells (collect attached as well as floating cells). Wash cells twice with cold PBS. Re-suspend cells in 1× Annexin binding buffer.
Count cells and dilute in 1× Annexin binding buffer to ˜1×10^6 cells/0.1 ml, preparing a sufficient volume to have 100 μl per assay. Add 5 μl of the Annexin V conjugate to each 100 μl of cell suspension. Add 4 μl of propidium iodide solution (stock=1 mg/ml) to each 100 μl of cell suspension. Incubate sample at RT for 15 minutes. Add 400 μl Annexin binding buffer, mix gently and keep samples on ice. Analyze stained cells immediately by flow cytometry.

[2] = test system: Ramos xenograft; experiment: Ramos Burkitt's lymphoma xenograft model; format: in vivo; conditions: FIG. 5
Experimental: (§1) Two xenograft models for inoculation were harvested and diluted to a concentration of 50×10^6 cells/ml or 100×10^6 cells/ml. Four to six week old nude mice were injected with 0.1 ml of the cell suspension containing between 5×10^6 and 10×10^6 cells. When tumors are of a suitable size compound dosing is commenced. Tumor sizes are measured throughout the treatment period with calipers and body weights also measured.

[3] = test system: Salmonella typhimurium (TA97a, TA98, TA100, TA102, TA1535); conditions: positive control
Experimental: This Mutagenicity Assessment (Ames Assay) evaluated the potential of the test article extracts to induce histidine (his) reversion in S. typhimurium (his− to his+) or tryptophan (trp) reversion in E. coli (trp− to trp+) caused by base changes or frameshift mutations in the genome of tester organisms.
This plate incorporation assay was conducted with five strains of Salmonella typhimurium (TA97a, TA98, TA100, TA102, and TA1535) and one strain of Escherichia coli (WP2-uvrA^−) in the presence and absence of an exogenous mammalian activation system (S9). The test article was dissolved in 5% dextrose. A series of dilutions were then prepared in saline just prior to testing. A Range Finding Study was conducted for this assay to determine the appropriate doses for definitive mutagenicity assessment.
A stock solution of test article was prepared at 20.0 mg/mL as follows: 1.0 g test article was added to 15.0 mL of 0.1 HCl for 1 minute. The test article was stirred for 15 minutes at room temperature. Next 33.0 mL of deionized water was added and allowed to stir for 30 minutes. […] Lower doses were prepared by dilution in 5% dextrose from this stock immediately prior to use. To minimize any change of degradation, the test article solutions were kept on ice after preparation and until just prior to dosing procedures. The test article was administered in vitro, through a solvent compatible with the test system.
This assay has historically been used to detect mutation in a gene of a histidine requiring strain to produce a histidine independent strain or concordantly, to detect mutation in a gene of a tryptophan requiring strain to produce a tryptophan independent strain.
S. typhimurium strain TA1535 and E. coli strain Wp2-uvrA^− were received from American Type Culture Collection, Manassas, Va. […] All working stocks of test strains will be confirmed for genotypic markers and acceptable reversion rates.
Master plates of the tester strains were prepared from frozen working stocks. To create working cultures for each bacterial strain used in the assay, a single colony was transferred from the master plate into Oxoid nutrient broth and incubated, with shaking, at 37±2° C. until an optical density (at 650 nm) of 0.6-1.6 was reached. This overnight culture was used for the mutagenicity test and for genotypic confirmation. Genotype tests were performed.
For both the dose range and mutagenicity test, a top agar consisting of 0.6% Difco agar in 0.5% NaCl was melted and a solution of 0.5 mM L-histidine/0.5 mM biotin or 0.5 mM L-tryptophan was added to the melted top agar at a ratio of 10 mL per 100 mL agar, as required. The supplemented agar was aliquotted, 2 mL per tube and held at 45-47° C. To prepare the top agar for treatment, 0.1 mL of the test article or control, 0.1 mL of the bacterial culture and 0.5 mL of phosphate buffered saline were added to the molten agar. […] Metabolic activation was provided by adding 0.5 mL of the S9 mix in place of the PBS. […] All plates were counted using an automatic image analysis system. Negative control and test article treated plates were also examined for the presence of a bacterial lawn.
The in vitro metabolic activation system used in this assay was comprised of Sprague Dawley rat liver enzymes and a cofactor pool. […] Immediately prior to use, the S9 was thawed and mixed with a cofactor pool to contain 5% S9, 5 mM glucose 6-phosphate, 4 mM β-nicotine-adenine dinucleotide phosphate, 8 mM MgCl2 and 33 mM KCl in a 200 mM phosphate buffer at pH 7.4. The S9 was purchased from Moltox (Boone, N.C.) and maintained frozen at less than −70° C.
For the definitive assay, three dose levels were chosen ([…], and 5.0 mg/mL). This was equivalent to 2.0, 1.0, and 0.5 mg/plate. All treatments, including negative and positive control, were plated in triplicate against test strains TA97a, TA98, TA100, TA102, TA1535, and WP2-uvrA^− in the presence and absence of metabolic activation.

[4] = target: c-Myc template DNA (c-myc quadruplex); experiment: Quadruplex binding / stop assay (Taq polymerase arrest, capillary electrophoresis)
[5] = test system: HCT-116; experiment: Cell proliferation/cytotoxicity in HCT-116 (Table 1D); format: cell-based; conditions: Homo sapiens; HCT-116 cells; unit inferred
[6] = test system: HCT-116 xenograft; experiment: HCT-116 colorectal cancer xenograft model; format: in vivo; conditions: HCT-116 model; FIG. 6
Experimental: as §1
CX-3543 was tested against a number of cancer xenograft models to determine the in vivo efficacy. HCT-116 and PC-3 tumor-bearing nu/nu or MiaPaCa tumor-bearing SCID mice were administered reference and testing compounds on schedules indicated in figure legends. Tumor measurements were taken with calipers every other day or twice a week starting from the first day of dosing and body weights were measured at the same time points. Tumor volumes were calculated from the standard formula, W^2×L/2. c-MYC mRNA expression was measured with QPCR from all tumor samples following the final dose. 18S ribosomal RNA was used as a housekeeper and also quantified with QPCR.

[7] = test system: HeLa cells; experiment: MTS cell proliferation and/or cytotoxicity assay; format: cell-based, Human; conditions: Homo sapiens, HeLa, 72 h, concentration at which 50% of antiproliferative cell response is seen; 3 days incubation; read-out: MTS Data Hella
Method in brief: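 HeLa cells seeded at 4,500 cells/well, exposed to compounds from day 1 for 3 days at 37 °C, 5% CO2. Viability by MTS/PMS (20:1) with 4 h incubation, absorbance at 490 nm. Values are concentrations giving 50% antiproliferative response.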

[8] = test system: topoisomerase II; experiment: Topoisomerase-II poison assay; format: biochemical; conditions: 1 μM; control Topoisomerase-II poison
Text: FIG. 7 illustrates data from a toposiomerase-II poison assay, using VP-16 (Etoposide) as a control Topoisomerase-II poison.

[9] = read-out: S DATA, Table 1D, stop assay data

IC50 [4, 9] [µM]	Molecule	IC50 [5] [nM]	also measured
7.5	CC(C)CN1CCN(c2c(F)cc3c(=O)c(C(=O)NCCN4CCCC4)cn4c3c2Oc2cc(Cl)ccc2-4)CC1 [compound 1826]	30	–
7.5	COc1ccc(CN2CCN(c3c(F)cc4c(=O)c(C(=O)NCCN5CCCC5)cn5c4c3Oc3cc(Cl)ccc3-5)CC2)cc1 [compound 1828]	100	–
8.2	O=C(NCCN1CCCC1)c1cn2c3c(c(N4CCNCC4)c(F)cc3c1=O)Oc1cc(Cl)ccc1-2 [compound 1820]	30	–
2.9	CC(C)(C)OC(=O)N1CCN(c2c(F)cc3c(=O)c(C(=O)NCCN4CCCC4)cn4c3c2Oc2cc(Cl)ccc2-4)CC1 [compound 1818]	40	–
4.8	CCN1CCN(c2c(F)cc3c(=O)c(C(=O)NCCN4CCCC4)cn4c3c2Oc2cc(Cl)ccc2-4)CC1 [compound 1827]	10	–

The next lines start with the molecule.

Molecule	IC50 [4, 9] [µM]	IC50 [5] [nM]	also measured
CC[C@@]1(O)C(=O)OCc2c1cc1n(c2=O)Cc2cc3ccccc3nc2-1 [CPT]	–	–	Annexin V / duplex DNA dye response [1]: mixed apoptotic/necrotic response
CN1CCN(CCCNCCC(=O)N[C@@H]2CCN(c3c(F)cc4c(=O)c(C(=O)N5CCOCC5)cn5c4c3Oc3cc4c(cc3-5)oc3ccccc34)C2)CC1 [compound 1204]	–	–	antitumor activity: efficacy [2]: slow tumor weight gain; toxicity (body weight) [2]: little body weight change
[N-]=[N+]=[N-] [Sodium Azide]	–	–	FI ([3]; TA100, without S9 activation): 4.9; TA100 colony count (Rep 1-3) ([3]; TA100, without S9 activation): 615 and 631 and 702; TA100 colony count, Mean ([3]; TA100, without S9 activation): 649.3
O=C(NCCN1CCCC1)c1cn2c3c(c(NCCCN4CCOCC4)c(F)cc3c1=O)Oc1cc(Cl)ccc1-2 [compound 1816]	5	30	–
CN1CCCC1CCNC(=O)c1cn2c3c(c(N[C@H]4CN5CCC4CC5)c(F)cc3c1=O)Oc1cc3ccccc3cc1-2 (stereo partly drawn) [compound 1496]	0.375	340	–
O=C(NCCN1CCCC1)c1cn2c3c(c(NCCCN4CCOCC4)c(F)cc3c1=O)Oc1cc3ccccc3cc1-2 [compound 494]	–	–	IC50 ([4]; read-out: Stop Data c-Myc μM, concentration at which 50% of the DNA was arrested (arrested:full-length 1:1)): 0.44 µM; antitumor activity: efficacy [6]: slow tumor weight gain; toxicity (body weight) [6]: little body weight change; IC50 [7]: 190 nM
VP-16	–	–	topoisomerase-II mediated DNA cleavage [8]: formation of double-strand breaks
Nc1ccc2cc3ccccc3cc2c1 [2-AA]	–	–	FI ([3]; TA100, with S9 activation): 6.8; TA100 colony count (Rep 1-3) ([3]; TA100, with S9 activation): 655 and 857 and 949; TA100 colony count, Mean ([3]; TA100, with S9 activation): 820.3
O=C(NCCN1CCCC1)c1cn2c3c(c(N4CCC(c5cnccn5)C4)c(F)cc3c1=O)Oc1cc(Cl)ccc1-2 (stereo not drawn) [compound 1811]	2.8	200	–
